Experimental data from patent US8003375B2, “Qualitative differential screening” (ExonHit Therapeutics S.A., priority 1998, dated 2011).

Key:
[1] = tested on: HepG2 cells; test: Cytotoxicity tests (trypan blue, MTT) and apoptosis test (Cell Death ELISA, DNA fragmentation) on HepG2 cells
Protocol: (§1) The effects of toxic compounds on RNA splicing regulation defects were tested as follows. HepG2 hepatocyte cells were treated with different doses of three toxic compounds (ethanol, camptothecin, PMA (phorbol 12-myristate 13-acetate)). Two cytotoxicity tests (trypan blue, MTT) were performed at different time points: 4 h and 18 h for ethanol; 4 h and 18 h for camptothecin; 18 h and 40 h for PMA.
(§2) Trypan blue is a dye that can be incorporated by […] cells. […] The experimental points are determined in triplicate.
(§3) The MTT test is a colorimetric test measuring the capacity of living cells to convert soluble tetrazolium salts (MTT) into an insoluble formazan precipitate. These dark blue formazan crystals can be dissolved and their concentration determined by measuring absorbance at 550 nm. Thus, after overnight seeding of 24-well dishes with 150,000 cells, followed by treatment of the cells with the toxic compounds, 50 μl of MTT (Sigma) are added (at a concentration of 5 mg/ml in PBS). The formazan crystal formation reaction is carried out for 5 h in a CO2 incubator (37° C., 5% CO2, 95% humidity). After addition of 500 μl of solubilization solution (0.1 N HCl in isopropanol-Triton X-100 (10%)), the crystals are dissolved with stirring and their absorbance is measured at 550 to 660 nm. Determinations are done in triplicate with suitable controls (viability, cell death, blanks).
(§4) A test of apoptosis or programmed cell death was also performed by measuring DNA fragmentation with an anti-histone antibody and ELISA. The Cell Death ELISA Plus from Roche was used.

[2] = as above; details: human
Protocol: as §1, §2, §3, §4

[3] = tested on: MACH-α (Caspase-8) isoforms; test: RT-PCR of MACH-α isoforms in treated HepG2 cells; format: cell-based, human; details: camptothecin 1 μg/ml, 4 h, RT-PCR (FIG. 19)
Protocol: HepG2 cells were thus treated with these three concentrations of these three compounds for 4 h in the case of ethanol and camptothecin and for 18 h in the case of PMA. Messenger RNAs were purified on Dynal-Oligo-(dT) beads starting from total RNAs purified with the Rneasy kit (Quiagen). cDNA was synthesized from these messenger RNAs using Superscript reverse transcriptase (Life Technologies) and random hexamers as primers
These initial strands served as templates for PCR amplification reactions (94° C. 1 min, 55° C. 1 min, 72° C. 1 min, 30 cycles) by means of the following oligonucleotide primers: […]
These primers correspond to the regions common to the different described isoforms of MACH-α (1, 2 and 3, respectively amplifying 595, 550 and 343 base pairs). MACH-α (Caspase-8) is a protease involved in programmed cell death (Boldin et al., (1996), Cell, 85: 803-815).

[4] = tested on: bcl-X isoforms; test: RT-PCR of BCL-X isoforms in treated HepG2 cells; format: cell-based, human; details: 4 h, RT-PCR (FIG. 19)
Protocol: HepG2 cells were thus treated with these three concentrations of these three compounds for 4 h in the case of ethanol and camptothecin and for 18 h in the case of PMA. […] These initial strands served as templates for PCR amplification reactions (94° C. 1 min, 55° C. 1 min, 72° C. 1 min, 30 cycles) by means of the following oligonucleotide primers: [table] These primers correspond to the regions common to the different described isoforms of bcl-X (bcl-XI, bcl-Xs, BCL-Xβ) (Boise et al., (1993), Cell 74: 597-608; U72398 (Genbank)) and should amplify a single 204 base pair fragment for these three isoforms.

[5] = tested on: FASR isoforms; test: RT-PCR of FASR isoforms in treated HepG2 cells; format: cell-based, human; details: 4 h, RT-PCR (FIG. 19)
Protocol: HepG2 cells were thus treated with these three concentrations of these three compounds for 4 h in the case of ethanol and camptothecin and for 18 h in the case of PMA. […] These initial strands served as templates for PCR amplification reactions (94° C. 1 min, 55° C. 1 min, 72° C. 1 min, 30 cycles) by means of the following oligonucleotide primers: [table] These primers correspond to the regions common to certain FASR isoforms and should amplify a 478 base pair fragment for wild type form FasR, 452 base pairs for isoform Δ8 and 415 for isoform ΔTM.

[6] = tested on: HepG2 cells; details: 0.1 M ethanol for 18 hours (FIG. 9)
Excerpt: A more complex situation was examined. […] RNAs were extracted from cells that were or were not subjected to treatment. The aforementioned DATAS variant (preparation of biotinylated ss cDNA, cross hybridizations in liquid phase, application of a magnetic field to separate the species, RNase H digestion) was effected with untreated cells in the reference condition (or condition A) and with treated cells in the test condition (or condition B) (FIG. 9). As the extracted RNAs were not radiolabeled, the RNAs generated by RNase H digestion were visualized by carrying out an exchange reaction to replace the RNA 5′ phosphate with a labeled phosphate, by means of T4 polynucleotide kinase and gamma-P^32ATP. These labeled products were then loaded on an acrylamide/urea gel and analyzed by exposure using an Instant Imager (Packard Instruments).

Compound: CCCCCCCCCCCCCC(=O)O[C@@H]1[C@@H](C)[C@@]2(O)[C@@H](C=C(CO)C[C@]3(O)C(=O)C(C)=C[C@@H]23)[C@@H]2C(C)(C)[C@]12OC(C)=O [PMA, phorbol 12-myristate 13-acetate]
- IC50 in cytotoxicity and apoptosis tests ([1]; HepG2 cells, trypan blue, MTT, Cell Death ELISA, 18 h and 40 h, stated concentration well below measured IC50): > 0.05 mg/L

Compound: CC[C@@]1(O)C(=O)OCc2c1cc1n(c2=O)Cc2cc3ccccc3nc2-1 [camptothecin]
- IC50 ([2]; HepG2 hepatocyte cells): > 1 mg/L
- expression of isoform MACH-α1 [3]: decrease
- expression of isoform MACH-α3 [3]: increase
- bcl-X isoform pattern ([4]; camptothecin 1 μg/ml): induces the appearance of a new bcl-X isoform
- fas receptor isoform pattern ([5]; camptothecin 1 μg/ml): induces a decrease in the wild type form of the fas receptor, replaced by expression of a shorter isoform which may correspond to Fas ΔTM

Compound: CCO [ethanol]
- IC50 [2]: > 100 mM
- cytotoxicity and DNA degradation [1]: signs of cytotoxicity and DNA degradation via internucleosomal fragmentation
- bcl-X isoform pattern ([4]; ethanol 0.1 M): induces the disappearance of bcl-x which is replaced by a shorter isoform
- fas receptor isoform pattern ([5]; ethanol 0.1 M): induces an increase in the long wild type form of the fas receptor at the expense of the shorter isoform
- RNA splicing signatures (A/B and B/A signals versus A/A) [6]: can induce a reprogramming of RNA splicing events
